Data reported in ChEMBL document CHEMBL3785028 (J Med Chem, 2016).

What was measured:
Type in all cases: ADME, organism-based
Settings in all cases: in vivo
[1] = Half life in rat at 2 mg/kg, po
[2] = AUC(0 to infinity) in mouse at 30 mg/kg, po; design: dose 30 mg/kg, route oral, time infinity
[3] = Oral bioavailability in rat at 2 mg/kg
[4] = Clearance in rat at 1 mg/kg, iv
[5] = Volume of distribution in rat at 1 mg/kg, iv
[6] = Half life in mouse at 30 mg/kg, po
[7] = Half life in rat at 1 mg/kg, iv
[8] = AUC in rat at 2 mg/kg, po
[9] = Cmax in rat at 2 mg/kg, po; design: dose 2 mg/kg, route oral

half-life [1] [h] | AUC(0-inf) [2] [ng·h/mL] | bioavailability [3] [%] | clearance [4] [mL/min/kg] | Vd [5] [L/kg] | half-life [6] [h] | half-life [7] [h] | AUC [8] [ng·h/mL] | Cmax [9] [ng/mL] | SMILES
1.9 | 2000 | 75 | 57 | 2.2 | 1.5 | 0.85 | – | – | CN1C(=O)[C@@H](NC(=O)c2cc(Cc3ccccc3)on2)CNc2ccccc21
2.9 | – | – | – | – | – | – | 2200 | 810 | O=C(N[C@H]1COc2ccccc2NC1=O)c1cc(Cc2ccccc2)on1
